Laboratory results from US11260023B2, “Topical compositions containing rofecoxib and methods of making and using the same” (BRIORI BIOTECH, LLC, priority 2020, dated 2022).
“And” between values parts separate entries of the source, which are not always exact repeats. Equal values may be shown once.

Assay: Solubility of rofecoxib in solvent systems containing two or three solvents; synergistic or antagonist effect
Type: physicochemical
Protocol: The solubility of rofecoxib in solvent systems containing two or three solvents was determined. In solvent systems containing two solvents, […] of each solvent was added to 100 mg of rofecoxib. In solvent systems containing three solvents, […] of each solvent was added to 100 mg of rofecoxib. The samples were mixed using the protocol for solvent systems containing single solvents above. Serial dilutions of the rofecoxib solvent solutions were made (1:100 v:v), (1:1000 v/v), and (1:2000 v/v). Solvents without rofecoxib were diluted with methanol and used to blank a Beckman DU-7400 spectrophotometer. The absorbance of the samples was determined at a wavelength of 279.1 nm. The concentration of rofecoxib dissolved in the solvent was calculated using Beer's Law. The ability of the solvent systems to synergistically dissolve rofecoxib or antagonistically dissolve rofecoxib (reduce the ability of rofecoxib to dissolve was determined) according to the protocol below. The contribution for solubility of a single solvent in a two-mixture solution was calculated to be ½ of the calculated solubility of rofecoxib in one gram of excipient. Likewise, the contribution for solubility of a three-mixture was calculated to be ⅓ of the calculated solubility of rofecoxib in one gram of excipient. The expected solubility for a mixture is the addition of the contribution of each excipient. […] The percent change between the expected solubility and actual solubility was determined. […] Similar calculations are utilized for solvent systems containing three or more solvents.

% Change (observed vs expected solubility) (in DI + PGD): 123.9%
Expected Solubility (in DI + PGD): 23.04 mg/g
Observed Solubility (in DI + PGD): 28.54 mg/g
% Change (observed vs expected solubility) (in EA + AC): 79.1%
Expected Solubility (in EA + AC): 14.52 mg/g
Observed Solubility (in EA + AC): 11.49 mg/g
% Change (observed vs expected solubility) (in EA + AT): 82.6%
Expected Solubility (in EA + AT): 2.91 mg/g
Observed Solubility (in EA + AT): 2.40 mg/g
% Change (observed vs expected solubility) (in EA + BA): 94.1%
Expected Solubility (in EA + BA): 12.52 mg/g
Observed Solubility (in EA + BA): 11.78 mg/g
% Change (observed vs expected solubility) (in EA + DGME): 55.4%
Expected Solubility (in EA + DGME): 7.29 mg/g
Observed Solubility (in EA + DGME): 4.04 mg/g
% Change (observed vs expected solubility) (in EA + DI): 62.0%
Expected Solubility (in EA + DI): 22.32 mg/g
Observed Solubility (in EA + DI): 13.84 mg/g
% Change (observed vs expected solubility) (in EA + DIA): 85.7%
Expected Solubility (in EA + DIA): 3.77 mg/g
Observed Solubility (in EA + DIA): 3.23 mg/g
% Change (observed vs expected solubility) (in EA + DMSO): 122.9%
Expected Solubility (in EA + DMSO): 74.55 mg/g
Observed Solubility (in EA + DMSO): 91.63 mg/g
% Change (observed vs expected solubility) (in EA + DS): 88.0%
Expected Solubility (in EA + DS): 3.67 mg/g
Observed Solubility (in EA + DS): 3.22 mg/g
% Change (observed vs expected solubility) (in EA + IPTD): 41.5%
Expected Solubility (in EA + IPTD): 2.75 mg/g
Observed Solubility (in EA + IPTD): 1.14 mg/g
% Change (observed vs expected solubility) (in EA + M24D): 110.4%
Expected Solubility (in EA + M24D): 3.05 mg/g
Observed Solubility (in EA + M24D): 3.36 mg/g
% Change (observed vs expected solubility) (in EA + MP): 75.3%
Expected Solubility (in EA + MP): 101.75 mg/g
Observed Solubility (in EA + MP): 76.59 mg/g
% Change (observed vs expected solubility) (in EA + OA): 38.5%
Expected Solubility (in EA + OA): 2.95 mg/g
Observed Solubility (in EA + OA): 1.14 mg/g
% Change (observed vs expected solubility) (in EA + PC): 103.9%
Expected Solubility (in EA + PC): 27.47 mg/g
Observed Solubility (in EA + PC): 28.53 mg/g
% Change (observed vs expected solubility) (in EA + PEG): 120.0%
Expected Solubility (in EA + PEG): 9.32 mg/g
Observed Solubility (in EA + PEG): 11.19 mg/g
% Change (observed vs expected solubility) (in EA + PGD): 109.1% and 100.3%
Expected Solubility (in EA + PGD): 6.22 mg/g
Observed Solubility (in EA + PGD): 6.78 mg/g and 6.23 mg/g
% Change (observed vs expected solubility) (in EA + PPG): 156.1%
Expected Solubility (in EA + PPG): 2.90 mg/g
Observed Solubility (in EA + PPG): 4.53 mg/g
% Change (observed vs expected solubility) (in EA + PS20): 107.9%
Expected Solubility (in EA + PS20): 7.34 mg/g
Observed Solubility (in EA + PS20): 7.92 mg/g
% Change (observed vs expected solubility) (in EA + PS80): 105.8%
Expected Solubility (in EA + PS80): 7.61 mg/g
Observed Solubility (in EA + PS80): 8.05 mg/g
% Change (observed vs expected solubility) (in MP + EA): 71.4%
Expected Solubility (in MP + EA): 107.75 mg/g
Observed Solubility (in MP + EA): 76.89 mg/g
% Change (observed vs expected solubility) (in MP + PEG + PGD): 35.17%
Expected Solubility (in MP + PEG + PGD): 72.69 mg/g
Expected Solubility (in PC + AC): 36.48 mg/g and 36.5 mg/g
% Change (observed vs expected solubility) (in PC + AC + MP): 34.18%
Expected Solubility (in PC + AC + MP): 90.34 mg/g
% Change (observed vs expected solubility) (in PC + AC + PEG): 123.74%
Expected Solubility (in PC + AC + PEG): 28.72 mg/g
Observed Solubility (in PC + AC + PEG): 35.53 mg/g
% Change (observed vs expected solubility) (in PC + AC + PGD): 200.59% and 129.71% and 114.18%
Expected Solubility (in PC + AC + PGD): 26.65 mg/g
Observed Solubility (in PC + AC + PGD): 53.45 mg/g and 34.56 mg/g
% Change (observed vs expected solubility) (in PC + BA): 99.3%
Expected Solubility (in PC + BA): 34.49 mg/g
Observed Solubility (in PC + BA): 34.26 mg/g
% Change (observed vs expected solubility) (in PC + BA + AC): 134.75%
Expected Solubility (in PC + BA + AC): 30.85 mg/g
Observed Solubility (in PC + BA + AC): 41.57 mg/g
% Change (observed vs expected solubility) (in PC + BA + DMSO): 85.64%
Expected Solubility (in PC + BA + DMSO): 70.86 mg/g
% Change (observed vs expected solubility) (in PC + BA + MP): 21.30%
Expected Solubility (in PC + BA + MP): 88.99 mg/g
% Change (observed vs expected solubility) (in PC + BA + PEG): 63.48%
Expected Solubility (in PC + BA + PEG): 27.37 mg/g
% Change (observed vs expected solubility) (in PC + BA + PGD): 84.91%
Expected Solubility (in PC + BA + PGD): 25.30 mg/g
% Change (observed vs expected solubility) (in PC + MP): 69.3%
Expected Solubility (in PC + MP): 123.72 mg/g
Observed Solubility (in PC + MP): 85.76 mg/g
% Change (observed vs expected solubility) (in PC + MP + PEG): 46.39%
Expected Solubility (in PC + MP + PEG): 86.86 mg/g
% Change (observed vs expected solubility) (in PC + MP + PGD): 21.70%
Expected Solubility (in PC + MP + PGD): 84.79 mg/g
% Change (observed vs expected solubility) (in PC + PEG + PGD): 153.76%
Expected Solubility (in PC + PEG + PGD): 23.17 mg/g
Observed Solubility (in PC + PEG + PGD): 35.62 mg/g
% Change (observed vs expected solubility) (in PC + PGD): 123.0% and 97.8%
Expected Solubility (in PC + PGD): 28.18 mg/g
Observed Solubility (in PC + PGD): 34.66 mg/g and 27.55 mg/g
% Change (observed vs expected solubility) (in PEG + DGME): 119.7%
Expected Solubility (in PEG + DGME): 11.11 mg/g
Observed Solubility (in PEG + DGME): 13.30 mg/g
% Change (observed vs expected solubility) (in PEG + EA): 150.3%
Expected Solubility (in PEG + EA): 9.32 mg/g
Observed Solubility (in PEG + EA): 14.00 mg/g
% Change (observed vs expected solubility) (in PEG + PGD): 124.5% and 120.8%
Expected Solubility (in PEG + PGD): 10.04 mg/g
Observed Solubility (in PEG + PGD): 12.50 mg/g and 12.13 mg/g
SMILES: CS(=O)(=O)c1ccc(C2=C(c3ccccc3)C(=O)OC2)cc1 [Rofecoxib]
